# Laboratory results from patent US20230227449A1, “AMIDOPYRIMIDONE DERIVATIVES” (Hoffmann-La Roche Inc., priority 2020, published 2023).
# Counter-ions that a name gives are not always drawn.
# Biological target: Recombinant human Mat2a (Homo sapiens, UniProt P31153)
# Assay: Determination of Mat2A activity (384 well absorbance-based assay, Biomol Green)
# Type: biochemical
# Conditions: 12.5 nM Mat2A, 100 μM ATP and Methionine, 2% DMSO, 120 minutes at RT, absorbance at 635 nm
# Description: Determination of Mat2A activity
# Measurement of Mat2A inhibition is performed in 384 well format absorbance-based assay. Recombinant human Mat2a (12.5 nM) and serial diluted compounds in DMSO (range of concentrations from […] to 508 pM) or controls (DMSO) are incubated for 15 minutes at room temperature (RT) in assay buffer containing 50 mM HEPES pH 7.5, 50 mM KCl, 50 mM MgCl2, 0.01% Tween 20 and 10 mM DTT. The reaction is initiated by the addition of the combined substrates ATP and Methionine, each at a final concentration of 100 μM. Final assay condition are 12.5 nM Mat2A, 100 μM ATP and Methionine Substrates and 2% DMSO. After 120 minutes of incubation at RT, the reaction is stopped by the addition of Biomol Green. The absorbance signal is measured at λ=635 nm with a multiplate reader (BMG Pherastar reader or equivalent) after 30 min of equilibration at RT.
# Recombinant human Mat2a, sequence (P31153 whole entry): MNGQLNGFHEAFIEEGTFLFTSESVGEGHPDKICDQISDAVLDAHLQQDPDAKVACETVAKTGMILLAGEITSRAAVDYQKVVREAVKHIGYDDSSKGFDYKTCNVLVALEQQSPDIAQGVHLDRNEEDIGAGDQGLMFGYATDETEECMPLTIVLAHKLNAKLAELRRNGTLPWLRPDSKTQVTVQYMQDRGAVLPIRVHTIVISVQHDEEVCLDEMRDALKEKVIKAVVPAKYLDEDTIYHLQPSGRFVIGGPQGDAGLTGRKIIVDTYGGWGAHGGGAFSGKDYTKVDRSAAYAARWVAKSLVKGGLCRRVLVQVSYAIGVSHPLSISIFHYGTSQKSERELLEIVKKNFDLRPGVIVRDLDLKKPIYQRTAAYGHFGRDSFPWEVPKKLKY
row,SMILES,IC50
1,"CCn1nccc1-n1c(=O)nc(N)c2ccc(C3CC3)nc21 [Example 61, 4-amino-7-cyclopropyl-1-(1-ethyl-1H-pyrazol-5-yl)pyrido[2,3-d]pyrimidin-2(1H)-one]",< 0.013 µM
2,"Cc1ccccc1-n1c(=O)nc(N)c2ccc(Cl)nc21 [Example 62, 4-amino-7-chloro-1-(o-tolyl)pyrido[2,3-d]pyrimidin-2(1H)-one]",0.02 µM
3,"Nc1nc(=O)n(-c2cccc3c2OCC3)c2nc(C3CC3)ccc12 [Example 63, 4-amino-7-cyclopropyl-1-(2,3-dihydrobenzofuran-7-yl)pyrido[2,3-d]pyrimidin-2(1H)-one]",0.015 µM
4,"Nc1nc(=O)n(-c2ccccc2Cl)c2nc(C3CC3)ccc12 [Example 64, 4-amino-1-(2-chlorophenyl)-7-cyclopropylpyrido[2,3-d]pyrimidin-2-one]",< 0.013 µM
5,"COc1c(C#N)cccc1-n1c(=O)nc(N)c2cc(Cl)c(C3CC3)nc21 [Example 65, 3-(4-amino-6-chloro-7-cyclopropyl-2-oxopyrido[2,3-d]pyrimidin-1(2H)-yl)-2-methoxybenzonitrile]",0.018 µM
6,"COc1ncccc1-n1c(=O)nc(N)c2cc(Cl)c(C3CC3)nc21 [Example 66, 4-amino-6-chloro-7-cyclopropyl-1-(2-methoxypyridin-3-yl)pyrido[2,3-d]pyrimidin-2(1H)-one]",0.013 µM
7,"Cc1cc(F)ccc1-n1c(=O)nc(N)c2ccc(C3CC3)nc21 [Example 67, 4-amino-7-cyclopropyl-1-(4-fluoro-2-methylphenyl)pyrido[2,3-d]pyrimidin-2-one]",0.018 µM
8,"CCc1cccc(-n2c(=O)nc(N)c3ccc(C4CC4)nc32)c1 [Example 68, 4-amino-7-cyclopropyl-1-(3-ethylphenyl)pyrido[2,3-d]pyrimidin-2(1H)-one]",< 0.013 µM
9,"Cc1cccc(-n2c(=O)nc(N)c3ccc(C4CC4)nc32)c1 [Example 69, 4-amino-7-cyclopropyl-1-(m-tolyl)pyrido[2,3-d]pyrimidin-2(1H)-one]",< 0.013 µM
10,"Nc1nc(=O)n(-c2cc(F)cc(F)c2)c2nc(C3CC3)ccc12 [Example 70, 4-amino-7-cyclopropyl-1-(3,5-difluorophenyl)pyrido[2,3-d]pyrimidin-2(1H)-one]",0.066 µM
11,"COc1cccc(-n2c(=O)nc(N)c3ccc(C4CC4)nc32)c1 [Example 71, 4-amino-7-cyclopropyl-1-(3-methoxyphenyl)pyrido[2,3-d]pyrimidin-2(1H)-one]",< 0.013 µM
12,"COc1cccc(-n2c(=O)nc(N)c3ccc(C4CC4)nc32)n1 [Example 72, 4-amino-7-cyclopropyl-1-(6-methoxypyridin-2-yl)pyrido[2,3-d]pyrimidin-2(1H)-one]",< 0.013 µM
13,"Nc1nc(=O)n(-c2cccc(F)c2F)c2nc(C3CC3)ccc12 [Example 73, 4-amino-7-cyclopropyl-1-(2,3-difluorophenyl)pyrido[2,3-d]pyrimidin-2(1H)-one]",< 0.013 µM
14,"Nc1nc(=O)n(-c2ccccc2)c2nc(C3CC3)ccc12 [Example 74, 4-amino-7-cyclopropyl-1-phenylpyrido[2,3-d]pyrimidin-2(1H)-one]",0.016 µM
15,"C[C@H](c1cnco1)n1c(=O)nc(N)c2ccc(C3CC3)nc21 [Example 75, 4-amino-7-cyclopropyl-1-(1-(oxazol-5-yl)ethyl)pyrido[2,3-d]pyrimidin-2(1H)-one]",0.099 µM
16,"Cc1c(C#N)cccc1-n1c(=O)nc(N)c2ccc(C(F)(F)F)cc21 [Example 76, 3-(4-amino-2-oxo-7-(trifluoromethyl)quinazolin-1(2H)-yl)-2-methylbenzonitrile]",< 0.013 µM
17,"Cc1c(C#N)cccc1-n1c(=O)nc(N)c2ccc(C(F)(F)F)nc21 [Example 77, 3-(4-amino-2-oxo-7-(trifluoromethyl)pyrido[2,3-d]pyrimidin-1(2H)-yl)-2-methylbenzonitrile]",< 0.013 µM
18,"Nc1nc(=O)n(-c2c(F)cccc2F)c2nc(C3CC3)ccc12 [Example 78, 4-amino-7-cyclopropyl-1-(2,6-difluorophenyl)pyrido[2,3-d]pyrimidin-2(1H)-one]",< 0.013 µM
19,"Nc1nc(=O)n(-c2ccccc2F)c2nc(C3CC3)ccc12 [Example 79, 4-amino-7-cyclopropyl-1-(2-fluorophenyl)pyrido[2,3-d]pyrimidin-2(1H)-one]",< 0.013 µM
20,"Nc1nc(=O)n(-c2cccc(F)c2)c2nc(C3CC3)ccc12 [Example 80, 4-amino-7-cyclopropyl-1-(3-fluorophenyl)pyrido[2,3-d]pyrimidin-2(1H)-one]",< 0.013 µM

# The remaining lines, values ahead:
row,IC50,SMILES
1,0.042 µM,"CC(C1COC1)n1c(=O)nc(N)c2ccc(C3CC3)nc21 (stereo not drawn) [Example 81, 4-amino-7-cyclopropyl-1-[1-(oxetan-3-yl)ethyl]pyrido[2,3-d]pyrimidin-2-one]"
2,0.036 µM,"CC(c1ccccn1)n1c(=O)nc(N)c2ccc(C3CC3)nc21 (stereo not drawn) [Example 82, 4-amino-7-cyclopropyl-1-(1-pyridin-2-ylethyl)pyrido[2,3-d]pyrimidin-2-one]"
3,0.032 µM,"Cc1ncccc1-n1c(=O)nc(N)c2ccc(CC(F)(F)F)cc21 [Example 83, 4-amino-1-(2-methyl-3-pyridyl)-7-(2,2,2-trifluoroethyl)quinazolin-2-one hydrochloride]"
4,0.21 µM,"Nc1nc(=O)n(C2CCOCC2)c2nc(C3CC3)ccc12 [Example 84, 4-amino-7-cyclopropyl-1-(tetrahydro-2H-pyran-4-yl)pyrido[2,3-d]pyrimidin-2(1H)-one]"
5,< 0.013 µM,"Nc1nc(=O)n(-c2cccnc2Cl)c2nc(C3CC3)ccc12 [Example 85, 4-amino-1-(2-chloropyridin-3-yl)-7-cyclopropylpyrido[2,3-d]pyrimidin-2(1H)-one]"
6,< 0.013 µM,"Cc1ncccc1-n1c(=O)nc(N)c2ccc(C3CC3)cc21 [Example 86, 4-amino-7-cyclopropyl-1-(2-methylpyridin-3-yl)quinazolin-2 (1H)-one]"
7,0.02 µM,"Cc1ncccc1-n1c(=O)nc(N)c2c(Cl)cc(C(F)(F)F)cc21 [Example 87, 4-amino-5-chloro-1-(2-methylpyridin-3-yl)-7-(trifluoromethyl)quinazolin-2(1H)-one]"
8,< 0.013 µM,"Nc1nc(=O)n(C2CCCOC23CC3)c2nc(C3CC3)ccc12 (stereo not drawn) [Example 88, 4-amino-7-cyclopropyl-1-(4-oxaspiro[2.5]octan-8-yl)pyrido[2,3-d]pyrimidin-2(1H)-one]"
9,0.013 µM,"Cc1ncsc1-n1c(=O)nc(N)c2ccc(N3C4CCC3CC4)nc21 [Example 90, 4-amino-7-(7-azabicyclo[2.2.1]heptan-7-yl)-1-(4-methylthiazol-5-yl)pyrido[2,3-d]pyrimidin-2-one]"
10,< 0.013 µM,"Cc1ccccc1-n1c(=O)nc(N)c2ccc(OC(F)F)nc21 [Example 91, 4-amino-7-(difluoromethoxy)-1-(2-methylphenyl)pyrido[2,3-d]pyrimidin-2-one]"
11,0.037 µM,"COc1ccccc1-c1c(=O)nc(N)n2ccc(C(F)(F)F)cc12 [Example 92, 1-amino-4-(2-methoxyphenyl)-6-(trifluoromethyl)-3H-pyrido[1,2-c]pyrimidin-3-one]"
12,0.027 µM,"Cc1ncccc1-n1c(=O)nc(N)c2ccc(C3CCOC3)nc21 (stereo not drawn) [Example 93, 4-amino-1-(2-methylpyridin-3-yl)-7-(tetrahydrofuran-3-yl)pyrido[2,3-d]pyrimidin-2 (1H)-one]"
13,0.074 µM,"Cc1ccccc1-n1c(=O)nc(N)c2c(C(N)=O)cc(C3CC3)nc21 [Example 94, 4-amino-7-cyclopropyl-2-oxo-1-(o-tolyl)-1,2-dihydropyrido[2,3-d]pyrimidine-5-carboxamide]"
14,0.022 µM,"Cc1ccccc1-n1c(=O)nc(N)c2c(C#N)cc(C3CC3)nc21 [Example 95, 4-amino-7-cyclopropyl-2-oxo-1-(o-tolyl)-1,2-dihydropyrido[2,3-d]pyrimidine-5-carbonitrile]"
15,< 0.013 µM,"Cc1ccccc1-n1c(=O)nc(N)c2cnc(C3CC3)nc21 [Example 96, 4-amino-7-cyclopropyl-1-(o-tolyl)pyrimido[4,5-d]pyrimidin-2 (1H)-one]"
16,0.048 µM,"Nc1nc(=O)n(C2CCNC(=O)C2)c2nc(C3CC3)ccc12 (stereo not drawn) [Example 97, 4-amino-7-cyclopropyl-1-(2-oxopiperidin-4-yl)pyrido[2,3-d]pyrimidin-2 (1H)-one]"
17,0.2 µM,"Cc1ncccc1-n1c(=O)nc(O)c2ccc(C3CC3)cc21 [Example 98, 7-cyclopropyl-1-(2-methylpyridin-3-yl)quinazoline-2,4-dione]"
18,0.065 µM,"Cc1ccccc1-n1c(=O)nc(O)c2ccc(C3CC3)nc21 [Example 99, 7-cyclopropyl-1-(2-methylphenyl)pyrido[2,3-d]pyrimidine-2,4-dione]"
19,0.35 µM,"Cc1ccccc1-n1c(=O)[nH]c(=O)c2ccc(C3CC3)cc21 [Example 100, 7-cyclopropyl-1-(2-methylphenyl)quinazoline-2,4-dione]"
20,0.04 µM,"Cc1ncccc1-n1c(=O)nc(O)c2ccc(C3CC3)nc21 [Example 101, 7-cyclopropyl-1-(2-methylpyridin-3-yl)pyrido[2,3-d]pyrimidine-2,4-dione]"
21,0.014 µM,"COc1cc(C(F)(F)F)cc2c1c(N)nc(=O)n2-c1cccnc1C [Example 102, 4-amino-5-methoxy-1-(2-methylpyridin-3-yl)-7-(trifluoromethyl)quinazolin-2 (1H)-one]"
22,0.042 µM,"COc1c(C#N)cccc1-n1c(=O)nc(N)c2cc(Cl)c(C(C)C)nc21 [Example 105, 3-(4-amino-6-chloro-7-isopropyl-2-oxopyrido[2,3-d]pyrimidin-1 (2H)-yl)-2-methoxybenzonitrile]"
